Data from US7585517B2, “Transscleral delivery” (Macusight, Inc., priority 2003, dated 2009).
Where two headings read alike, the source gives them in different places.

How the values were obtained:
laser induced CNV [1] = test: Inhibition of laser induced CNV by periocular rapamycin (Example 1); format: in vivo; conditions: mice; daily periocular injections of 5 micrograms in corn oil, begun two days before laser rupture; two weeks after laser; SD 0.00197
Description: (§1) CNV may be induced by rupturing Bruch's membrane with laser. Fifteen mice were given daily periocular injections of 5 micrograms of rapamycin in corn oil vehicle in one eye. After two days of treatment, Bruch's membrane was ruptured by laser at three sites in each eye. The fellow eye served as control and was treated with periocular injections of corn oil only. Two weeks after laser rupture, 10 mice were perfused with fluorescein-labeled dextran and CNV areas were measured in each eye on choroidal flat mounts. The remaining mice had retinas and RPE/choroid dissected and stored at −70° C. for tissue therapeutic agents level measurement.

[2] = Retinal tissue and blood levels of rapamycin after periocular injection (HPLC/MS); format: in vivo; conditions: mice
Description: as §1

human sclera = test: Two chamber Ussing type permeability apparatus, transscleral rapamycin delivery; format: in vitro ADME; conditions: for rapamycin held by the sclera at the conclusion of the experiment: 36 hours; for total rapamycin recovered from the uveal chamber: in 36 hours
Description: (§2) Prior to testing of sclera, loss of therapeutic agent to the glass walls of the experimental apparatus was evaluated. For the evaluation of loss of drug to the experimental apparatus, the uveal and orbital chambers were exposed to a 2 μg/mL rapamycin solution in balanced salt solution.
(§3) A 7 mm disk of fresh donor human sclera was used to separate the two chambers of the Ussing permeability apparatus. The two sides of the sclera were denoted “orbital” to represent the outer surface and “uveal” to represent the internal surface. […] Thus, in order to grossly replicate a scleral depot delivery system, the hydrophobic therapeutic agent solvents were diluted to 5% concentration in balanced salt solution (BSS) with dissolved rapamycin to form a roughly 100 μg per ml orbital chamber solution. In this example, the chamber on the orbital surface side contained a reservoir of 200 μl of rapamycin dissolved in 5% DMSO in BSS at an expected concentration of 100 μg per milliliter. The 500 μl uveal chamber was continually perfused at 0.0075 milliliter per minute and samples were collected by a fractionater in Eppendorf tubes every 4 hours. The experiment was run for 36 hours.
(§4) At the peak concentrations in the uveal chamber (250 ng/ml), rapamycin will fully dissolve in vitreous. Because the amount of therapeutic agent in the orbital chamber was declining, the steady state was estimated by the highest flux. […] A permeability coefficient (K) was calculated as:
(§5) [formula] ΔC represents the increase in concentration the compound in the uveal chamber (0.250 micrograms/ml) that occurs over the interval t, in seconds ([…]). V is the chamber volume (1.8 milliliter). A represents the exposed area of the tissue (0.385 cm^2). C0 is the initial concentration of the compound in the orbital chamber (92 microgram/ml). Calculated in this manner, the permeability coefficient, K, has the dimensions of cm/s. KTRANS thus expresses the rate at which a given solute traverses the tissue. (Advanced Therapeutic agent Delivery Reviews 52 (2001) 37-48 by Dale Geroski and Hank Edelhauser, which is incorporated herein by reference in its entirety). For this experiment KTRANS was roughly 8.82×10^−6 cm/sec, which was on the order of predictions based on MW. Comparatively, when evaluating the KTRANS of dexamethasone, which is smaller than rapamycin, and adjusting for a lower solubility, the figures for rapamycin are also in the appropriate predicted ranges. It is expected that as the external concentration of rapamycin is raised, the flux will increase. Under the ex-vivo conditions of this example, rapamycin can be delivered in the single digit micrograms per day to the vitreous. Such rates are consistent with therapeutic local tissue levels and support that rapamycin is a viable therapeutic agent for transscleral delivery to the posterior segment for vitreoretinal disease. Transscleral Rapamycin Delivery—Methanol Solution
(§6) The above procedure was followed with the exception that rapamycin was dissolved in 5% methanol in BSS. The time profile of the concentration of rapamycin in the uveal chamber is depicted in FIG. 3 (circles). The peak concentration in the uveal chamber was 271 ng/ml at t=12 to 16 hours. The total amount of rapamycin accumulated on the uveal side of the sclera is depicted as function of time in FIG. 4 (squares). The total rapamycin recovered from the uveal chamber was 3.44 micrograms in 36 hours.

[3] = as above; format: in vitro ADME, human; conditions: human
Description: as §2, §3, §4, §5, §6

laser induced CNV [4] = test: Reversal of laser induced CNV by periocular rapamycin (Example 2); format: in vivo; conditions: mice; daily periocular 5 μg in 5 μl corn oil started one week after laser, for one week; SD 0.0053
Description: Fifteen mice had Bruch's membrane ruptured with laser photocoagulation at 3 locations in each eye. After one week, 5 mice were perfused with fluorescein-labeled dextran and the baseline area of CNV was measured in each eye. At that point, the remaining mice were started on daily periocular injections of 5 μl of corn oil containing 5 μg of rapamycin in one eye and corn oil alone in the fellow eye. After one more week, the mice were perfused with fluorescein-labeled dextran and CNV areas were measured in each eye on choroidal flat mounts. The corn oil solution used is approximately a saturated solution. It is expected that lower doses will be used to deliver therapeutically effective amounts of rapamycin.
Baseline lesion CNV area was 0.0105 mm^2 with a standard deviation of 0.0037.

Solubility of rapamycin = format: physicochemical

- rapamycin blood levels ([2]; periocular 5 μg per day): 5.57 nanograms per milligram blood
- retinal tissue levels of rapamycin, treated eyes ([2]; periocular 5 μg per day, HPLC/MS): 25 picograms per milligram tissue
- retinal tissue levels of rapamycin, fellow control eyes ([2]; untreated fellow eye of animals given periocular 5 μg per day in the other eye): 7 picograms per milligram tissue
- time of peak concentration in the uveal chamber (human sclera; 5% DMSO in BSS): 8 to 12 h
- peak concentration in the uveal chamber (human sclera; 5% DMSO in BSS, about 100 μg per ml orbital chamber): 250 ng/mL
- rapamycin held by the sclera at the conclusion of the experiment (human sclera; 5% DMSO in BSS): 0.57 micrograms
- total rapamycin recovered from the uveal chamber (human sclera; 5% DMSO in BSS): 2.67 micrograms
- peak concentration in the uveal chamber (human sclera; 5% methanol in BSS): 271 ng/mL
- time of peak concentration in the uveal chamber (human sclera; 5% methanol in BSS): 12 to 16 h
- rapamycin held by the sclera at the conclusion of the experiment (human sclera; 5% methanol in BSS): 0.41 micrograms
- total rapamycin recovered from the uveal chamber (human sclera; 5% methanol in BSS): 3.44 micrograms
- Papp at 36 h, 92 μg/mL ([3]; 5% DMSO in BSS, read-out: permeability coefficient KTRANS): ~8.82 ×10⁻⁶ cm/s
- Papp at 36 h, 100 μg/mL ([3]; 5% methanol in BSS, read-out: permeability coefficient KTRANS): 9.56 ×10⁻⁶ cm/s
- Papp at 36 h, 100 μg/mL ([3]; ex-vivo human scleral tissue, order of magnitude, summary of Example 3, read-out: permeability of human sclera to rapamycin): ~10 ×10⁻⁶ cm/s
- solubility in aqueous solutions (Solubility of rapamycin): poorly soluble
Structure (SMILES): CO[C@H]1C[C@@H]2CC[C@@H](C)[C@@](O)(O2)C(=O)C(=O)N2CCCC[C@H]2C(=O)O[C@H]([C@H](C)C[C@@H]2CC[C@@H](O)[C@H](OC)C2)CC(=O)[C@H](C)/C=C(\C)[C@@H](O)[C@@H](OC)C(=O)[C@H](C)C[C@H](C)/C=C/C=C/C=C/1C [rapamycin]
- mean CNV area, rapamycin treated eyes (laser induced CNV [1]): 0.00381 mm^2
- highest flux (human sclera; 5% DMSO in BSS, taken as estimate of steady state): 9.35 micrograms per square centimeter per day
- CNV area, treated eyes (laser induced CNV [4]): 0.00458 mm^2
